Assay results: PubChem BioAssay (NCI)
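Interpolation was linear, between the two tested concentrations surrounding the appropriate level; five concentrations were tested over 48 hours in 96-well plates. TGI: concentration producing complete growth inhibition.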

Test system: HCT-15 colon
Test: growth of human tumour cells (NCI), 48 h

SMILES | TGI
CCOC(=O)C1=C(C)N(C)C23OC4(C(=O)OC)CC2c2ccccc2C1N3C4=O (stereo not given) | > 100 µM
CC(=O)c1c2c(cc3c1CC1(Cc4ccccc4C1=O)C3)CCC2 (stereo not given) | > 100 µM
Cc1cccc(-c2nc3ccc([N+](=O)[O-])cc3c(=O)o2)c1 | > 100 µM
O=C1N=c2ccccc2=C1c1c(O)[nH]c2ccccc12 | 19.6 µM
CCCCCCCCCCCCCCCCCCNc1ccn(C2OC(COP(=O)(O)OCC3OC(n4cc(C)c(=O)[nH]c4=O)CC3O)C(O)C2O)c(=O)n1 (stereo not given) | 33.5 µM
NC(N)=NCCN=C(N)N | > 100 µM
COC(=O)C(C)(NC(=O)C(CC(=O)OC(C)(C)C)NC(=O)OC(C)(C)C)c1ccccc1 (stereo not given) | > 100 µM
CCOC(=O)C1=CC(C)(C(=O)OCC)Nc2c(nc(OC)n(C)c2=O)N1 (stereo not given) | > 10 µM
Oc1ccc2ccccc2c1/C=C/c1ccc2c(Br)cc(Br)c(O)c2n1 | 17.5 µM
C=C1CC(c2ccc(OCCCN3C(=O)c4ccccc4C3=O)c(OC)c2)OC1=O (stereo not given) | 18.6 µM
O=[N+]([O-])c1ccc(/C=N/n2c(CO)nc3ccccc32)o1 | 15.7 µM

Test system: T-47D breast
Test: growth of human tumour cells (NCI), 48 h

SMILES | TGI
CCOC(=O)C1=C(C)N(C)C23OC4(C(=O)OC)CC2c2ccccc2C1N3C4=O (stereo not given) | > 100 µM
CC(=O)c1c2c(cc3c1CC1(Cc4ccccc4C1=O)C3)CCC2 (stereo not given) | 49.3 µM
Cc1cccc(-c2nc3ccc([N+](=O)[O-])cc3c(=O)o2)c1 | > 100 µM
O=C1N=c2ccccc2=C1c1c(O)[nH]c2ccccc12 | 3.77 µM
CCCCCCCCCCCCCCCCCCNc1ccn(C2OC(COP(=O)(O)OCC3OC(n4cc(C)c(=O)[nH]c4=O)CC3O)C(O)C2O)c(=O)n1 (stereo not given) | 41.8 µM
NC(N)=NCCN=C(N)N | > 100 µM
COC(=O)C(C)(NC(=O)C(CC(=O)OC(C)(C)C)NC(=O)OC(C)(C)C)c1ccccc1 (stereo not given) | > 100 µM
CCOC(=O)C1=CC(C)(C(=O)OCC)Nc2c(nc(OC)n(C)c2=O)N1 (stereo not given) | > 10 µM
Oc1ccc2ccccc2c1/C=C/c1ccc2c(Br)cc(Br)c(O)c2n1 | 35.4 µM
C=C1CC(c2ccc(OCCCN3C(=O)c4ccccc4C3=O)c(OC)c2)OC1=O (stereo not given) | 9.96 µM
O=[N+]([O-])c1ccc(/C=N/n2c(CO)nc3ccccc32)o1 | 47.9 µM

Test system: SF-268 CNS
Test: growth of human tumour cells (NCI), 48 h

SMILES | TGI
CCOC(=O)C1=C(C)N(C)C23OC4(C(=O)OC)CC2c2ccccc2C1N3C4=O (stereo not given) | > 100 µM
CC(=O)c1c2c(cc3c1CC1(Cc4ccccc4C1=O)C3)CCC2 (stereo not given) | > 100 µM
Cc1cccc(-c2nc3ccc([N+](=O)[O-])cc3c(=O)o2)c1 | > 100 µM
O=C1N=c2ccccc2=C1c1c(O)[nH]c2ccccc12 | > 100 µM
CCCCCCCCCCCCCCCCCCNc1ccn(C2OC(COP(=O)(O)OCC3OC(n4cc(C)c(=O)[nH]c4=O)CC3O)C(O)C2O)c(=O)n1 (stereo not given) | 32.4 µM
NC(N)=NCCN=C(N)N | > 100 µM
COC(=O)C(C)(NC(=O)C(CC(=O)OC(C)(C)C)NC(=O)OC(C)(C)C)c1ccccc1 (stereo not given) | > 100 µM
CCOC(=O)C1=CC(C)(C(=O)OCC)Nc2c(nc(OC)n(C)c2=O)N1 (stereo not given) | > 10 µM
Oc1ccc2ccccc2c1/C=C/c1ccc2c(Br)cc(Br)c(O)c2n1 | 21.8 µM
C=C1CC(c2ccc(OCCCN3C(=O)c4ccccc4C3=O)c(OC)c2)OC1=O (stereo not given) | 23 µM
O=[N+]([O-])c1ccc(/C=N/n2c(CO)nc3ccccc32)o1 | 22.7 µM

Test system: TK-10 renal
Test: growth of human tumour cells (NCI), 48 h

SMILES | TGI
CCOC(=O)C1=C(C)N(C)C23OC4(C(=O)OC)CC2c2ccccc2C1N3C4=O (stereo not given) | > 100 µM
CC(=O)c1c2c(cc3c1CC1(Cc4ccccc4C1=O)C3)CCC2 (stereo not given) | > 100 µM
Cc1cccc(-c2nc3ccc([N+](=O)[O-])cc3c(=O)o2)c1 | > 100 µM
O=C1N=c2ccccc2=C1c1c(O)[nH]c2ccccc12 | 72.7 µM
CCCCCCCCCCCCCCCCCCNc1ccn(C2OC(COP(=O)(O)OCC3OC(n4cc(C)c(=O)[nH]c4=O)CC3O)C(O)C2O)c(=O)n1 (stereo not given) | 22.3 µM
NC(N)=NCCN=C(N)N | > 100 µM
COC(=O)C(C)(NC(=O)C(CC(=O)OC(C)(C)C)NC(=O)OC(C)(C)C)c1ccccc1 (stereo not given) | > 100 µM
CCOC(=O)C1=CC(C)(C(=O)OCC)Nc2c(nc(OC)n(C)c2=O)N1 (stereo not given) | > 10 µM
Oc1ccc2ccccc2c1/C=C/c1ccc2c(Br)cc(Br)c(O)c2n1 | 23.2 µM
C=C1CC(c2ccc(OCCCN3C(=O)c4ccccc4C3=O)c(OC)c2)OC1=O (stereo not given) | 10.8 µM
O=[N+]([O-])c1ccc(/C=N/n2c(CO)nc3ccccc32)o1 | 19.2 µM

Test system: K-562 leukemia
Test: growth of human tumour cells (NCI), 48 h

SMILES | TGI
CCOC(=O)C1=C(C)N(C)C23OC4(C(=O)OC)CC2c2ccccc2C1N3C4=O (stereo not given) | > 100 µM
CC(=O)c1c2c(cc3c1CC1(Cc4ccccc4C1=O)C3)CCC2 (stereo not given) | > 100 µM
Cc1cccc(-c2nc3ccc([N+](=O)[O-])cc3c(=O)o2)c1 | > 100 µM
O=C1N=c2ccccc2=C1c1c(O)[nH]c2ccccc12 | > 100 µM
CCCCCCCCCCCCCCCCCCNc1ccn(C2OC(COP(=O)(O)OCC3OC(n4cc(C)c(=O)[nH]c4=O)CC3O)C(O)C2O)c(=O)n1 (stereo not given) | 50.2 µM
NC(N)=NCCN=C(N)N | > 100 µM
COC(=O)C(C)(NC(=O)C(CC(=O)OC(C)(C)C)NC(=O)OC(C)(C)C)c1ccccc1 (stereo not given) | > 100 µM
CCOC(=O)C1=CC(C)(C(=O)OCC)Nc2c(nc(OC)n(C)c2=O)N1 (stereo not given) | > 10 µM
Oc1ccc2ccccc2c1/C=C/c1ccc2c(Br)cc(Br)c(O)c2n1 | 22.5 µM
C=C1CC(c2ccc(OCCCN3C(=O)c4ccccc4C3=O)c(OC)c2)OC1=O (stereo not given) | 2.68 µM
O=[N+]([O-])c1ccc(/C=N/n2c(CO)nc3ccccc32)o1 | 62.7 µM

Test system: DU-145 prostate
Test: growth of human tumour cells (NCI), 48 h

SMILES | TGI
CCOC(=O)C1=C(C)N(C)C23OC4(C(=O)OC)CC2c2ccccc2C1N3C4=O (stereo not given) | > 100 µM
CC(=O)c1c2c(cc3c1CC1(Cc4ccccc4C1=O)C3)CCC2 (stereo not given) | > 100 µM
Cc1cccc(-c2nc3ccc([N+](=O)[O-])cc3c(=O)o2)c1 | > 100 µM
O=C1N=c2ccccc2=C1c1c(O)[nH]c2ccccc12 | 54.6 µM
CCCCCCCCCCCCCCCCCCNc1ccn(C2OC(COP(=O)(O)OCC3OC(n4cc(C)c(=O)[nH]c4=O)CC3O)C(O)C2O)c(=O)n1 (stereo not given) | 35.8 µM
NC(N)=NCCN=C(N)N | > 100 µM
COC(=O)C(C)(NC(=O)C(CC(=O)OC(C)(C)C)NC(=O)OC(C)(C)C)c1ccccc1 (stereo not given) | > 100 µM
CCOC(=O)C1=CC(C)(C(=O)OCC)Nc2c(nc(OC)n(C)c2=O)N1 (stereo not given) | > 10 µM
Oc1ccc2ccccc2c1/C=C/c1ccc2c(Br)cc(Br)c(O)c2n1 | 25.7 µM
C=C1CC(c2ccc(OCCCN3C(=O)c4ccccc4C3=O)c(OC)c2)OC1=O (stereo not given) | 24.5 µM
O=[N+]([O-])c1ccc(/C=N/n2c(CO)nc3ccccc32)o1 | 13.9 µM

Test system: KM12 colon
Test: growth of human tumour cells (NCI), 48 h

SMILES | TGI
CCOC(=O)C1=C(C)N(C)C23OC4(C(=O)OC)CC2c2ccccc2C1N3C4=O (stereo not given) | > 100 µM
CC(=O)c1c2c(cc3c1CC1(Cc4ccccc4C1=O)C3)CCC2 (stereo not given) | 49 µM
Cc1cccc(-c2nc3ccc([N+](=O)[O-])cc3c(=O)o2)c1 | > 100 µM
O=C1N=c2ccccc2=C1c1c(O)[nH]c2ccccc12 | > 100 µM
CCCCCCCCCCCCCCCCCCNc1ccn(C2OC(COP(=O)(O)OCC3OC(n4cc(C)c(=O)[nH]c4=O)CC3O)C(O)C2O)c(=O)n1 (stereo not given) | 36.4 µM
NC(N)=NCCN=C(N)N | > 100 µM
COC(=O)C(C)(NC(=O)C(CC(=O)OC(C)(C)C)NC(=O)OC(C)(C)C)c1ccccc1 (stereo not given) | > 100 µM
CCOC(=O)C1=CC(C)(C(=O)OCC)Nc2c(nc(OC)n(C)c2=O)N1 (stereo not given) | > 10 µM
Oc1ccc2ccccc2c1/C=C/c1ccc2c(Br)cc(Br)c(O)c2n1 | 30.9 µM
C=C1CC(c2ccc(OCCCN3C(=O)c4ccccc4C3=O)c(OC)c2)OC1=O (stereo not given) | 28.2 µM
O=[N+]([O-])c1ccc(/C=N/n2c(CO)nc3ccccc32)o1 | 15.4 µM

Test system: NCI/ADR-RES ovarian
Test: growth of human tumour cells (NCI), 48 h

SMILES | TGI
CCOC(=O)C1=C(C)N(C)C23OC4(C(=O)OC)CC2c2ccccc2C1N3C4=O (stereo not given) | > 100 µM
CC(=O)c1c2c(cc3c1CC1(Cc4ccccc4C1=O)C3)CCC2 (stereo not given) | 53.3 µM
Cc1cccc(-c2nc3ccc([N+](=O)[O-])cc3c(=O)o2)c1 | > 100 µM
O=C1N=c2ccccc2=C1c1c(O)[nH]c2ccccc12 | 48.2 µM
CCCCCCCCCCCCCCCCCCNc1ccn(C2OC(COP(=O)(O)OCC3OC(n4cc(C)c(=O)[nH]c4=O)CC3O)C(O)C2O)c(=O)n1 (stereo not given) | 31.3 µM
NC(N)=NCCN=C(N)N | > 100 µM
COC(=O)C(C)(NC(=O)C(CC(=O)OC(C)(C)C)NC(=O)OC(C)(C)C)c1ccccc1 (stereo not given) | > 100 µM
CCOC(=O)C1=CC(C)(C(=O)OCC)Nc2c(nc(OC)n(C)c2=O)N1 (stereo not given) | > 10 µM
Oc1ccc2ccccc2c1/C=C/c1ccc2c(Br)cc(Br)c(O)c2n1 | 12.9 µM
C=C1CC(c2ccc(OCCCN3C(=O)c4ccccc4C3=O)c(OC)c2)OC1=O (stereo not given) | > 100 µM
O=[N+]([O-])c1ccc(/C=N/n2c(CO)nc3ccccc32)o1 | 74.7 µM

Test system: MOLT-4 leukemia
Test: growth of human tumour cells (NCI), 48 h

SMILES | TGI
CCOC(=O)C1=C(C)N(C)C23OC4(C(=O)OC)CC2c2ccccc2C1N3C4=O (stereo not given) | > 100 µM
CC(=O)c1c2c(cc3c1CC1(Cc4ccccc4C1=O)C3)CCC2 (stereo not given) | 29.1 µM
Cc1cccc(-c2nc3ccc([N+](=O)[O-])cc3c(=O)o2)c1 | > 100 µM
O=C1N=c2ccccc2=C1c1c(O)[nH]c2ccccc12 | > 100 µM
CCCCCCCCCCCCCCCCCCNc1ccn(C2OC(COP(=O)(O)OCC3OC(n4cc(C)c(=O)[nH]c4=O)CC3O)C(O)C2O)c(=O)n1 (stereo not given) | 25.7 µM
NC(N)=NCCN=C(N)N | > 100 µM
COC(=O)C(C)(NC(=O)C(CC(=O)OC(C)(C)C)NC(=O)OC(C)(C)C)c1ccccc1 (stereo not given) | > 100 µM
CCOC(=O)C1=CC(C)(C(=O)OCC)Nc2c(nc(OC)n(C)c2=O)N1 (stereo not given) | > 10 µM
Oc1ccc2ccccc2c1/C=C/c1ccc2c(Br)cc(Br)c(O)c2n1 | 15.4 µM
C=C1CC(c2ccc(OCCCN3C(=O)c4ccccc4C3=O)c(OC)c2)OC1=O (stereo not given) | 2.72 µM
O=[N+]([O-])c1ccc(/C=N/n2c(CO)nc3ccccc32)o1 | 7.12 µM

Test system: LOX IMVI melanoma
Test: growth of human tumour cells (NCI), 48 h

SMILES | TGI
CCOC(=O)C1=C(C)N(C)C23OC4(C(=O)OC)CC2c2ccccc2C1N3C4=O (stereo not given) | > 100 µM
CC(=O)c1c2c(cc3c1CC1(Cc4ccccc4C1=O)C3)CCC2 (stereo not given) | 55.7 µM
Cc1cccc(-c2nc3ccc([N+](=O)[O-])cc3c(=O)o2)c1 | > 100 µM
O=C1N=c2ccccc2=C1c1c(O)[nH]c2ccccc12 | 49.9 µM
CCCCCCCCCCCCCCCCCCNc1ccn(C2OC(COP(=O)(O)OCC3OC(n4cc(C)c(=O)[nH]c4=O)CC3O)C(O)C2O)c(=O)n1 (stereo not given) | 31.9 µM
NC(N)=NCCN=C(N)N | > 100 µM
COC(=O)C(C)(NC(=O)C(CC(=O)OC(C)(C)C)NC(=O)OC(C)(C)C)c1ccccc1 (stereo not given) | > 100 µM
CCOC(=O)C1=CC(C)(C(=O)OCC)Nc2c(nc(OC)n(C)c2=O)N1 (stereo not given) | > 10 µM
Oc1ccc2ccccc2c1/C=C/c1ccc2c(Br)cc(Br)c(O)c2n1 | 23 µM
C=C1CC(c2ccc(OCCCN3C(=O)c4ccccc4C3=O)c(OC)c2)OC1=O (stereo not given) | 4.53 µM
O=[N+]([O-])c1ccc(/C=N/n2c(CO)nc3ccccc32)o1 | 15.9 µM
